The source of these data is PubChem BioAssay (NCI).

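Exposure lasted 48 hours, with cells grown in 96-well plates and compounds tested at five concentrations. The concentration for full growth arrest is given as TGI.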

Experiment in all cases: inhibition of tumour cell growth, NCI panel, 48 h
Test [1] deals with NCI-H460 lung.
In test [2] the test system is SK-MEL-28 melanoma.
Test [3] concerns A498 renal.
In test [4] the test system is HCT-15 colon.
Test [5] relates to PC-3 prostate.
The test system of test [6] is OVCAR-3 ovarian.
Test [7] has as its system DU-145 prostate.
Test [8] concerns A549 NSCLC.
Test [9] deals with T-47D breast.
Test [10] concerns NCI-H226 lung.
Test [11] has as its system HOP-92 NSCLC.
Test [12] concerns MCF7 breast.
Test [13] relates to IGROV1 ovarian.
Test [14] concerns CCRF-CEM leukemia.
The test system of test [15] is SK-MEL-2 melanoma.
The test system of test [16] is MDA-MB-231 breast.
Test [17] deals with NCI-H522 lung.
Test [18] deals with OVCAR-4 ovarian.
Test [19] deals with UACC-257 melanoma.

Consider `NC(=O)c1ccc(C(=O)Nc2ccc([As](=O)(O)O)cc2)cc1`, for which the TGI in [1], in test [2], in [3], in [4], in test [5] and in test [6] was over 100 µM throughout. For the same molecule, the TGI in test [7], in test [8], in test [9], in test [10], in test [11] and in [12] was over 100 µM in each case. Besides, the TGI in [13], in test [14], in test [15], in test [16], in test [17] and in test [18] was over 100 µM each time.

For `N#CC(C#N)=C1C(=Cc2ccc(OCCCCCCCCCCSSCCCCCCCCCCOc3ccc(C=C4C(=C(C#N)C#N)c5ccccc5C4=C(C#N)C#N)cc3)cc2)C(=C(C#N)C#N)c2ccccc21`, the TGI in [1] was found to be 44.7 µM; in [2], 52.4 µM; in test [3], 48.5 µM; in test [4], 31.6 µM; in test [5], 47.8 µM; in [6] it was 89 µM. For the same molecule, the TGI in test [7] was 47.7 µM; in test [19] it was over 100 µM; in test [8] it was 31 µM; in test [9], over 100 µM; in [10], 63.6 µM; in test [11], 34.9 µM. In addition, the TGI in test [12] is 48 µM; in [13] it was over 100 µM; in [15], 64 µM; in test [16], over 100 µM; in test [17], 34.7 µM; in [18], 52.9 µM.

Regarding `COc1ccccc1CCN1CCN(CCCc2ccccc2)CC1`, the TGI in [1], in test [2], in test [3], in test [4], in test [5] and in test [6] was over 100 µM in each case. The TGI is over 100 µM in test [7]; over 100 µM in test [19]; over 100 µM in [8]; over 100 µM in test [9]; over 100 µM in [10]; 23.2 µM in test [11]. The TGI in test [12], in [13], in test [14], in test [15], in test [16] and in test [17] was over 100 µM throughout. The TGI in test [18] is over 100 µM.

For `Cn1c2ccc([N+](=O)[O-])cc2c(=O)n1Cc1ccccc1F`, the TGI in test [1], in [2], in test [3], in test [4], in test [5] and in test [6] was over 100 µM each time. The TGI in test [7] is over 100 µM; in test [19], over 100 µM; in [8], over 100 µM; in [9], over 100 µM; in test [10], 92.4 µM; in test [11], 91.6 µM. For the same molecule, the TGI is over 100 µM in test [12]; over 100 µM in test [13]; over 100 µM in test [14]; over 100 µM in test [15]; over 100 µM in [16]; 71.5 µM in test [17]. Moreover, the TGI in test [18] is over 100 µM.

As for `CC1=NN(c2nc(N)nc(/C(C#N)=C/c3ccccc3O)n2)C(C)(C)C1`, the TGI in test [1] was 40.9 µM; in test [2] it was 30.8 µM; in test [3], 62.9 µM; in test [4], 38.6 µM; in [5], 31.6 µM; in test [6], 27.8 µM. Besides, the TGI in test [7] was found to be 32 µM; in [19] it was 38.5 µM; in test [8], 31.5 µM; in [9], 31.9 µM; in [10], 37.8 µM; in test [11], 36.7 µM. The TGI in test [12] was 64.9 µM; in [13], 45.5 µM; in test [14], 35.5 µM; in test [15] it was 39.6 µM; in test [16], 40.7 µM; in test [17], 36 µM. This molecule came in with a TGI in test [18] of 34.2 µM.

Take `CCOC(=O)c1c(SC(=O)c2ccc(C(C)(C)C)cc2)n(-c2ccccc2)c(=S)n(-c2ccccc2)c1=O`: the TGI in test [1], in test [2], in test [3], in [4], in test [5] and in test [6] was over 100 µM throughout. Moreover, the TGI in [7], in test [19], in [8], in test [9], in [10] and in [11] was over 100 µM throughout. Also, the TGI in test [12], in test [13], in test [14], in test [16], in [17] and in test [18] was over 100 µM in each case.

On to `C=Cc1nc2c(Cl)ncnc2n1Cc1ccccc1`, for which the TGI in [1] worked out at 23.6 µM; in test [2], 11.3 µM; in [3], 22.4 µM; in test [4] it was 8.05 µM; in test [5] it was 14.5 µM; in [6] it was 7.95 µM. In addition, the TGI in test [7] worked out at 7.2 µM; in [19], 8.6 µM; in test [8] it was 29.1 µM; in test [9], 6.75 µM; in [10], 17 µM; in [11], 4.66 µM. Moreover, the TGI in test [12] is 9.53 µM; in test [13], 10.9 µM; in [14], over 100 µM; in [15], 26.3 µM; in test [16], 19.1 µM; in test [17] it was 3.83 µM. The same molecule displayed a TGI in test [18] of 13.5 µM.

For `CC1=C(C(=O)OCCO[N+](=O)[O-])C(c2cccc([N+](=O)[O-])c2)C(C(=O)OC(C)C)=C(C)N1` (configuration not stated), the TGI in [1] amounted to 34.4 µM; in [2] it was 28.1 µM; in test [3], 46.8 µM; in [4], 27.4 µM; in test [5] it was 15.6 µM; in test [6], 23.6 µM. Moreover, the TGI in test [7] worked out at 65.9 µM; in test [19], 25.2 µM; in test [8], 37.4 µM; in test [9], 53.6 µM; in [10], 28.2 µM; in [11] it was 25.5 µM. The TGI in test [12] was 86.3 µM; in test [13], 33.9 µM; in test [14], over 100 µM; in test [15], 28 µM; in test [16], 26.1 µM; in [17], 34.9 µM. The same molecule had a TGI in [18] of 37.7 µM.

On to `O=C(O)CCC(NC(=O)c1ccc(OCc2nc3cc(C(F)(F)F)ccc3nc2-c2ccccc2)cc1)C(=O)O` (configuration not stated), for which the TGI in test [1], in test [2], in [3], in [4], in test [5] and in [6] was over 100 µM each time. Also, the TGI in test [7], in [19], in [8], in [9], in [10] and in test [11] was over 100 µM in each case. The TGI in [12], in test [13], in test [14], in test [15], in test [16] and in test [17] was over 100 µM in each case. The TGI in test [18] was over 100 µM.

Take `O=c1ccn([C@@H]2C[C@H]2CO)c(=O)[nH]1`: the TGI in test [1], in test [2], in [3], in [4], in test [5] and in test [7] was over 100 µM each time. Moreover, the TGI in test [19], in [8], in test [9], in test [10], in test [11] and in test [12] was over 100 µM each time. The TGI in test [13], in [14], in test [15], in test [16], in test [17] and in [18] was over 100 µM each time.

On to `CC(C)=C1C(=O)C[C@]2(C)C[C@H]3O[C@]3(C)CC[C@@H]3O[C@@]3(C)CC[C@@H]12`, for which the TGI in test [1], in [2], in test [3], in test [4], in test [5] and in test [6] was over 50 µM throughout. For the same molecule, the TGI in test [7], in test [19], in test [8], in [9], in test [10] and in [11] was over 50 µM throughout. The TGI in test [12], in [13], in test [14], in test [15], in [16] and in [17] was over 50 µM in each case. In [18], this molecule returned a TGI of over 50 µM.

As for `NC1c2c(Br)sc(N3CCCC3)c2C(=O)C1O` (configuration not stated), the TGI in test [1], in test [3], in [4], in test [5], in test [6] and in test [7] was over 50 µM in each case. Further, the TGI in test [19], in [8], in test [9], in test [10], in test [11] and in test [12] was over 50 µM each time. The TGI in [13], in test [14], in test [15], in test [16], in [17] and in test [18] was over 50 µM each time.

Take `Cc1nnc2n1N=C(c1ccccc1)/C(=C/c1ccc(-c3ccc(Cl)cc3)o1)S2`: the TGI came out at 34.2 µM in [1]; 31.4 µM in test [3]; 31.3 µM in test [4]; 26 µM in test [5]; 23.9 µM in test [6]; 38.9 µM in test [7]. For the same molecule, the TGI in [19] was 36.2 µM; in test [8], 49.4 µM; in test [9], 42.4 µM; in test [10], 31.1 µM; in test [11], 32.6 µM; in test [12], over 100 µM. For the same molecule, the TGI in [13] was determined as 36.6 µM; in [14] it was 16.4 µM; in test [15] it was 27.5 µM; in test [16], 33 µM; in [17], 24.7 µM; in [18] it was 80 µM.

With `COc1ccc(N2CN3OC(=O)N(c4ccc(OC)cc4)[C@@]3(c3ccccc3)C2)cc1`, the TGI in test [1] was over 100 µM; in test [2], over 100 µM; in test [3] it was over 100 µM; in test [4], over 100 µM; in test [5], 67.3 µM; in test [6], 48.9 µM. Besides, the TGI in [7] was over 100 µM; in [19], over 100 µM; in [8] it was over 100 µM; in test [9], 69.2 µM; in [10] it was over 100 µM; in [11] it was over 100 µM. In addition, the TGI in test [12] is over 100 µM; in test [13] it was over 100 µM; in [15], 45.1 µM; in [16] it was 99.6 µM; in test [17], over 100 µM; in test [18], over 100 µM.

On to `Nc1ccccc1-c1noc(=O)[nH]1`, for which the TGI in test [2], in [3], in test [4], in [5], in test [6] and in test [7] was over 100 µM in each case. Besides, the TGI in [19], in test [8], in test [9], in test [10], in test [11] and in test [12] was over 100 µM in each case. Moreover, the TGI in test [13], in [14], in [15], in test [16], in test [17] and in [18] was over 100 µM throughout.
